The text below walks through data of patent publication US10456379B2, “Imidazole-based antimicrobial agents” (priority 2014, dated 2019).

Data set [1] relates to Streptococcus pneumoniae (Chester, ATCC49619). As to the kind of experiment: Broth microdilution MIC assay, Streptococcus pneumoniae. Format: cell-based. Particulars: for MIC: Streptococcus pneumoniae, ATCC49619, read-out: Antibacterial activity, SP (Streptococcus pneumoniae), MIC class; for Antibacterial activity Streptococcus pneumoniae: MIC class score, MIC100, broth microdilution. (Broth dilution looks for growth in wells or tubes with falling amounts of substance.)

Data set [2] relates to Staphylococcus aureus MRSA (COL). Briefly: Broth microdilution MIC assay, Staphylococcus aureus MRSA (COL). The class given is cell-based. To be noted: MIC class score, MIC100, broth microdilution, COL strain.
Data set [3] deals with Staphylococcus epidermidis (PCI 1200, ATCC12228). As to the kind of experiment: Broth microdilution MIC assay, Staphylococcus epidermidis. Format: cell-based. To be noted: read-out: Antibacterial activity, SE (Staphylococcus epidermidis), MIC class.
In data set [4] the test system is Enterococcus faecalis (ATCC29212). Briefly: Broth microdilution MIC assay, Enterococcus faecalis. To be noted: read-out: Antibacterial activity, EFs (Enterococcus faecalis), MIC class. The class given is cell-based.
Data set [5] has as its system Enterococcus faecium (AGR15, ATCCBAA-2127). As to the kind of experiment: Broth microdilution MIC assay, Enterococcus faecium. Format: cell-based. Particulars: ATCCBAA2127, read-out: Antibacterial activity, EFm (Enterococcus faecium), MIC class.
For data set [6], the system named is vancomycin-resistant Enterococcus faecium (ATCC51559). Briefly: microbe, parasite or virus in culture. Format: cell-based.
For data set [7], the system named is vancomycin-resistant Enterococcus faecalis (ATCC51575). Briefly: microbe, parasite or virus in culture. Format: cell-based.
Data set [8] deals with linezolid-resistant Staphylococcus aureus (from MRSA COL). Briefly: Broth microdilution MIC assay, linezolid-resistant MRSA. To be noted: 24 h, read-out: Antibacterial activity, MRSA strains with additional resistance, L (linezolid), MIC class. Format: cell-based.
The subject of data set [9] is vancomycin-resistant Staphylococcus aureus (from MRSA COL). Briefly: Broth microdilution MIC assay, vancomycin-resistant MRSA. Format: cell-based. To be noted: 24 h, read-out: Antibacterial activity, MRSA strains with additional resistance, V (vancomycin), MIC class.
The subject of data set [10] is daptomycin-resistant Staphylococcus aureus (from MRSA COL). As to the kind of experiment: Broth microdilution MIC assay, daptomycin-resistant MRSA. The class given is cell-based. Particulars: 24 h, read-out: Antibacterial activity, MRSA strains with additional resistance, D (daptomycin), MIC class.
In data set [11] the test system is Mycobacterium smegmatis (mc(2)155). Briefly: Broth microdilution MIC assay, Mycobacterium smegmatis.
Data set [12] relates to Staphylococcus aureus MSSA (Newman). As to the kind of experiment: Broth microdilution MIC assay, Staphylococcus aureus MSSA (Newman). Format: cell-based. To be noted: for Antibacterial activity Staphylococcus aureus (MSSA): MIC class score, MIC100, broth microdilution, Newman strain; for MIC: Staphylococcus aureus, read-out: Antibacterial activity, MSSA (Staphylococcus aureus MSSA), MIC class.

Data set [13] has as its system MRSA (COL) resistant to triclosan. Briefly: Broth microdilution MIC assay, triclosan-resistant MRSA. Particulars: Staphylococcus aureus, read-out: Antibacterial activity, MRSA strains with additional resistance, T (triclosan), MIC class.
Data set [14] concerns platensimycin-resistant Staphylococcus aureus (from MRSA COL). As to the kind of experiment: Broth microdilution MIC assay, platensimycin-resistant MRSA. Format: cell-based. To be noted: 24 h, read-out: Antibacterial activity, MRSA strains with additional resistance, P (platensimycin), MIC class.
In data set [15] the test system is moenomycin-resistant Staphylococcus aureus (from MRSA COL). As to the kind of experiment: Broth microdilution MIC assay, moenomycin-resistant MRSA. Format: cell-based. To be noted: 24 h, read-out: Antibacterial activity, MRSA strains with additional resistance, M (moenomycin), MIC class.
The subject of data set [16] is Escherichia coli TolC mutant strain ΔtolC. Format: cell-based.
Setting [17] is: ATCC51559, vancomycin-resistant Enterococcus faecium, read-out: Antibacterial activity, VREFm (vancomycin-resistant EFm), MIC class.
The mark [18] stands for this setting: ATCC51575, vancomycin-resistant Enterococcus faecalis, read-out: Antibacterial activity, VREFs (vancomycin-resistant EFs), MIC class.

Values after ≈ are worked out from the molar mass of the structure shown. Read-outs that look alike come from different tables or passages of the source.

Take `Cc1nc(-c2ccc(-c3ccc(Cl)c(OC(F)(F)F)c3)o2)[nH]c1-c1ccc(Cl)cc1` [compound 44]: the MIC is under 1 µg/mL in data set [1]; 11 to 20 µg/mL (≈ 24.3 to 44.1 µM) in [3]; 20 to 50 µg/mL (≈ 44.1 to 110 µM) in data set [4]; 20 to 50 µg/mL (≈ 44.1 to 110 µM) in [5]; 11 to 20 µg/mL (≈ 24.3 to 44.1 µM) in [6] (setting [17]); 11 to 20 µg/mL (≈ 24.3 to 44.1 µM) in data set [7] (setting [18]). Also, the “Antibacterial activity Staphylococcus aureus (MRSA)” value in [2] is listed as 2 (MIC100 of 11-20 μg/ml).

For the compound `Cc1nc(-c2ccc(-c3ccc(C(F)(F)F)cc3)o2)[nH]c1-c1ccccc1` [compound 45], the MIC in [1] is under 1 µg/mL; in data set [7] (setting [18]) it was 20 to 50 µg/mL (≈ 54.3 to 136 µM); in [8] it was 1 to 3 µg/mL (≈ 2.71 to 8.14 µM); in [9], 1 to 3 µg/mL (≈ 2.71 to 8.14 µM); in data set [10], 1 to 3 µg/mL (≈ 2.71 to 8.14 µM).

For the compound `Cc1[nH]c(-c2ccc(-c3ccc(C(F)(F)F)cc3)o2)nc1-c1ccc(Cl)cc1` [compound 47], the “Antibacterial activity Staphylococcus aureus (MRSA)” value in data set [2] is 3 (MIC100 of 3-10 μg/ml). For the same compound, the MIC in data set [4], in [5], in [6] (setting [17]) and in [7] (setting [18]) was 20 to 50 µg/mL (≈ 49.7 to 124 µM) each time. Further, in [11], the “Antibacterial activity, MS (Mycobacterium smegmatis), MIC class” value (“Antibacterial activity, MS” below) is recorded as 3 (MIC100 of 3-10 μg/ml).

Regarding `Cc1[nH]c(-c2ccc(-c3ccc(C(F)(F)F)c(Cl)c3)o2)nc1-c1ccc(F)cc1` [compound 49], the “Antibacterial activity Streptococcus pneumoniae” value in [1] is 3 (MIC100 of 2-5 μg/ml). The MIC is 2 to 5 µg/mL (≈ 4.75 to 11.9 µM) in data set [1]; 11 to 20 µg/mL (≈ 26.1 to 47.5 µM) in [3]; 11 to 20 µg/mL (≈ 26.1 to 47.5 µM) in data set [4]; 20 to 50 µg/mL (≈ 47.5 to 119 µM) in data set [5]; 20 to 50 µg/mL (≈ 47.5 to 119 µM) in data set [6] (Enterococcus faecium, ATCC51559, read-out: Antibacterial activity, VREFm (vancomycin-resistant EFm), MIC class); 20 to 50 µg/mL (≈ 47.5 to 119 µM) in [7] (Enterococcus faecalis, ATCC51575, read-out: Antibacterial activity, VREFs (vancomycin-resistant EFs), MIC class). The MIC in [8] was in the range of 11 to 20 µg/mL (≈ 26.1 to 47.5 µM); in data set [10], 1 to 3 µg/mL (≈ 2.38 to 7.13 µM); in [13], 1 to 3 µg/mL (≈ 2.38 to 7.13 µM). In addition, in data set [12], the “Antibacterial activity Staphylococcus aureus (MSSA)” value is recorded as 3 (MIC100 of 3-10 μg/ml). Also, in data set [2], the “Antibacterial activity Staphylococcus aureus (MRSA)” value is given as 2 (MIC100 of 11-20 μg/ml).

With `Cc1[nH]c(-c2ccc(-c3ccc(OC(F)(F)F)cc3Cl)o2)nc1-c1ccc(F)cc1` [compound 51], the “Antibacterial activity Staphylococcus aureus (MSSA)” value in data set [12] was 2 (MIC100 of 11-20 μg/ml). The MIC in data set [12] is 11 to 20 µg/mL (≈ 25.2 to 45.8 µM); in [10], 1 to 3 µg/mL (≈ 2.29 to 6.87 µM); in data set [14] it was 11 to 20 µg/mL (≈ 25.2 to 45.8 µM); in data set [13], 3 to 10 µg/mL (≈ 6.87 to 22.9 µM).

As to `Cc1[nH]c(-c2ccc(-c3cccc(F)c3C)o2)nc1-c1ccccc1` [compound 60], in data set [1], the “Antibacterial activity Streptococcus pneumoniae” value is recorded as 3 (MIC100 of 2-5 μg/ml). Further, the values for the MIC in data set [4], in data set [8] and in data set [10] were 20 to 50 µg/mL (≈ 60.2 to 150 µM), 1 to 3 µg/mL (≈ 3.01 to 9.03 µM) and 1 to 3 µg/mL (≈ 3.01 to 9.03 µM), respectively. In addition, in [11], the “Antibacterial activity, MS” value is listed as 2 (MIC100 of 11-20 μg/ml).

As for `FC(F)(F)Oc1ccccc1-c1ccc(-c2nc(Cl)c(-c3ccccc3)[nH]2)o1` [compound 64], the MIC is under 1 µg/mL in data set [1], 1 to 3 µg/mL (≈ 2.47 to 7.41 µM) in data set [9], 1 to 3 µg/mL (≈ 2.47 to 7.41 µM) in data set [10] and 1 to 3 µg/mL (≈ 2.47 to 7.41 µM) in data set [15]. In data set [12], the “Antibacterial activity Staphylococcus aureus (MSSA)” value is reported as 2 (MIC100 of 11-20 μg/ml).

On to `Cc1ccccc1-c1c[nH]c(-c2ccc(-c3ccccc3OC(F)(F)F)o2)n1` [compound 66], for which the MIC in [1] is under 1 µg/mL; in data set [6] (setting [17]), 20 to 50 µg/mL (≈ 52 to 130 µM); in data set [7] (setting [18]), 20 to 50 µg/mL (≈ 52 to 130 µM); in data set [8], 1 to 3 µg/mL (≈ 2.6 to 7.81 µM); in data set [10], 1 to 3 µg/mL (≈ 2.6 to 7.81 µM); in data set [14], 11 to 20 µg/mL (≈ 28.6 to 52 µM). The “Antibacterial activity Staphylococcus aureus (MSSA)” value in data set [12] is reported as 3 (MIC100 of 3-10 μg/ml). In [2], the “Antibacterial activity Staphylococcus aureus (MRSA)” value is on record as 2 (MIC100 of 11-20 μg/ml). Further, in data set [11], the “Antibacterial activity, MS” value is given as 2 (MIC100 of 11-20 μg/ml).

As to `FC(F)(F)Oc1ccccc1-c1ccc(-c2nc(-c3ccc(Cl)cc3Cl)c[nH]2)o1` [compound 68], the MIC in [1] lay within 6 to 10 µg/mL (≈ 13.7 to 22.8 µM); in [12], 11 to 20 µg/mL (≈ 25 to 45.5 µM); in data set [10], 1 to 3 µg/mL (≈ 2.28 to 6.83 µM); in [14] it was 20 to 50 µg/mL (≈ 45.5 to 114 µM). Besides, the “Antibacterial activity Staphylococcus aureus (MSSA)” value in data set [12] was 2 (MIC100 of 11-20 μg/ml).

Take `CN(C)Cc1[nH]c(-c2ccc(-c3ccccc3C(F)(F)F)o2)nc1-c1ccccc1` [compound 70]: the “Antibacterial activity Streptococcus pneumoniae” value in [1] was 3 (MIC100 of 2-5 μg/ml). Also, the MIC is 2 to 5 µg/mL (≈ 4.86 to 12.2 µM) in [1]; 11 to 20 µg/mL (≈ 26.7 to 48.6 µM) in data set [3]; 11 to 20 µg/mL (≈ 26.7 to 48.6 µM) in [4]; 11 to 20 µg/mL (≈ 26.7 to 48.6 µM) in [5]; 11 to 20 µg/mL (≈ 26.7 to 48.6 µM) in data set [6] (setting [17]); 11 to 20 µg/mL (≈ 26.7 to 48.6 µM) in data set [7] (setting [18]). The MIC in data set [10] is 3 to 10 µg/mL (≈ 7.29 to 24.3 µM). The “Antibacterial activity, EC Δ (Escherichia coli ΔtoIC), MIC class” value in data set [16] is listed as 3 (MIC100 of 3-10 μg/ml).
